Assay results: ChEMBL document CHEMBL5653615 (J Biol Chem, 2013)

Assays:
[1] = target: RAC-gamma serine/threonine-protein kinase (Homo sapiens) (UniProt Q9Y243); assay: Inhibition of human AKT3 at 1.82 nM by HotSpot assay relative to control
[2] = target: Ephrin type-A receptor 7 (Homo sapiens) (UniProt Q15375); assay: Inhibition of human EPHA7 at 1.82 nM by HotSpot assay relative to control
[3] = target: Glycogen synthase kinase-3 alpha (Homo sapiens) (UniProt P49840); assay: Inhibition of human GSK3a at 1.82 nM by HotSpot assay relative to control
[4] = target: Mitogen-activated protein kinase 1 (Homo sapiens) (UniProt P28482); assay: Inhibition of human ERK2 at 1.82 nM by HotSpot assay relative to control
[5] = target: Tyrosine-protein kinase Srms (Homo sapiens) (UniProt Q9H3Y6); assay: Inhibition of human SRMS at 1.82 nM by HotSpot assay relative to control
[6] = target: Mitogen-activated protein kinase kinase kinase 8 (Homo sapiens) (UniProt P41279); assay: Inhibition of human COT1 at 1.82 nM by HotSpot assay relative to control
[7] = target: Non-receptor tyrosine-protein kinase TYK2 (Homo sapiens) (UniProt P29597); assay: Inhibition of human TYK2 at 1.82 nM by HotSpot assay relative to control
[8] = target: G protein-coupled receptor kinase 4 (Homo sapiens) (UniProt P32298); assay: Inhibition of human GRK4 at 18.6 nM by HotSpot assay relative to control
[9] = target: T1, Serine/threonine-protein kinase Nek1 (Homo sapiens) (UniProt Q96PY6); assay: Inhibition of human NEK1 at 18.6 nM by HotSpot assay relative to control
T1 sequence (whole entry): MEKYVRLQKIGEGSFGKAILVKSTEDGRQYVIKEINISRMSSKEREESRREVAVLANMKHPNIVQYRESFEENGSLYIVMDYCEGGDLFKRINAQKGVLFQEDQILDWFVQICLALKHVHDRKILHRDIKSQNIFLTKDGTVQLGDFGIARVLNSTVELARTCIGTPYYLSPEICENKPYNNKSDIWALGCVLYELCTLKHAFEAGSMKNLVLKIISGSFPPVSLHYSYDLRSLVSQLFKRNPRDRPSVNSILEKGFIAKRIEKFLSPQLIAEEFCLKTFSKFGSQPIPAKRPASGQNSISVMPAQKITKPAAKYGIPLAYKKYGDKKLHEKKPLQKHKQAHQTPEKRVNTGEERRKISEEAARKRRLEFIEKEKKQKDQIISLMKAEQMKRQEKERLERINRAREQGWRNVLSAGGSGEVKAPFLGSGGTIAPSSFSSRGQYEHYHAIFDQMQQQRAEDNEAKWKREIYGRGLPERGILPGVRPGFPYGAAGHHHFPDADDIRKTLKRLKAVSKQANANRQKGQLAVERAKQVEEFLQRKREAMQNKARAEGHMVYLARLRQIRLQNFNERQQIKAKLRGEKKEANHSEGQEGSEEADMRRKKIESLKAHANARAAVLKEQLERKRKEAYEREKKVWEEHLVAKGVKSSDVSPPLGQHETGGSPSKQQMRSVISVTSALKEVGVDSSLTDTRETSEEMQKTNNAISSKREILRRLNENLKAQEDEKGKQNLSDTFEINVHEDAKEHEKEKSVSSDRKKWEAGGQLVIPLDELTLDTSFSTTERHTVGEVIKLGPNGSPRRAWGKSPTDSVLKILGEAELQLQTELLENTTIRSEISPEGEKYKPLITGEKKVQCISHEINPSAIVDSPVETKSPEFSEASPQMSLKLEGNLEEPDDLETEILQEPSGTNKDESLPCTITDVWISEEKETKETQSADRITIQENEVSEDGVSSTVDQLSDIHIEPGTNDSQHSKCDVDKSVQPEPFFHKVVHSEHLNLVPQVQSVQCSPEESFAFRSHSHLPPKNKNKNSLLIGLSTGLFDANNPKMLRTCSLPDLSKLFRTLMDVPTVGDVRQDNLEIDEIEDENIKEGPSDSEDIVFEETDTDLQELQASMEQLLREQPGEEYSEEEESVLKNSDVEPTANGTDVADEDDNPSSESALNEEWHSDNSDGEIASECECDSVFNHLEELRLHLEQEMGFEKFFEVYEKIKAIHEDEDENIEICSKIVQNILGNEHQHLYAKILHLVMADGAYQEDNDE

[10] = target: Homeodomain-interacting protein kinase 3 (Homo sapiens) (UniProt Q9H422); assay: Inhibition of human HIPK3 at 18.6 nM by HotSpot assay relative to control
[11] = target: T2, Myotonin-protein kinase (Homo sapiens) (UniProt Q09013); assay: Inhibition of human DMPK at 18.6 nM by HotSpot assay relative to control
T2 sequence (whole entry): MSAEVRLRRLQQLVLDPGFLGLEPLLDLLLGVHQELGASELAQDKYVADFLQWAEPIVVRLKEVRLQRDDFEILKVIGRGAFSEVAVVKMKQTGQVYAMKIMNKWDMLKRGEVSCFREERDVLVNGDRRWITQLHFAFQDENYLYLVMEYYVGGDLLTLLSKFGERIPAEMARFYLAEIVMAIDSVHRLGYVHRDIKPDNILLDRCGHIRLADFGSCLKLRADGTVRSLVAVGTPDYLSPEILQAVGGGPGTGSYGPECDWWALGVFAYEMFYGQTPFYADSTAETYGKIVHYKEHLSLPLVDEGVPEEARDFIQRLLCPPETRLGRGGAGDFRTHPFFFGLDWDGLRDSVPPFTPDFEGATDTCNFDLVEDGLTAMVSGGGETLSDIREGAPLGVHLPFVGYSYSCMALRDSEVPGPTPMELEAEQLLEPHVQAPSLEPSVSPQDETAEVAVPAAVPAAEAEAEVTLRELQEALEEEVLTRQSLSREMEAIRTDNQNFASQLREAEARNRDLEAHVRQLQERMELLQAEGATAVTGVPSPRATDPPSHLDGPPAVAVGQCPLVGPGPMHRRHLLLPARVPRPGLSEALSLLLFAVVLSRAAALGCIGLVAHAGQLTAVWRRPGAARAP

Glycogen synthase kinase-3 alpha (Homo sapiens), sequence (P49840 2-483 limits assumed): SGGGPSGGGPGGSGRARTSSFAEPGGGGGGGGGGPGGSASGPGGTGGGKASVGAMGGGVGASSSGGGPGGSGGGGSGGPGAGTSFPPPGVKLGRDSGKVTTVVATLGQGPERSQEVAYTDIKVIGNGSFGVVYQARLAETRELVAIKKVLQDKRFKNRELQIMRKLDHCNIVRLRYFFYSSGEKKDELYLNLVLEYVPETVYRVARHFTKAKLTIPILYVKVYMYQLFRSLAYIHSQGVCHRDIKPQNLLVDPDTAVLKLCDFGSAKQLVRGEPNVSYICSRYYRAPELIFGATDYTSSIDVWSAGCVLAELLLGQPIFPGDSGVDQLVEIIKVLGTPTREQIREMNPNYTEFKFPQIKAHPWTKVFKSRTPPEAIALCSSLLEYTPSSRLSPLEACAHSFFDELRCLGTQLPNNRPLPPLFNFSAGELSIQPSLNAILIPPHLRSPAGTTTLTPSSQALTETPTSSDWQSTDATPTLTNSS
G protein-coupled receptor kinase 4 (Homo sapiens), sequence (P32298 whole entry, looked up): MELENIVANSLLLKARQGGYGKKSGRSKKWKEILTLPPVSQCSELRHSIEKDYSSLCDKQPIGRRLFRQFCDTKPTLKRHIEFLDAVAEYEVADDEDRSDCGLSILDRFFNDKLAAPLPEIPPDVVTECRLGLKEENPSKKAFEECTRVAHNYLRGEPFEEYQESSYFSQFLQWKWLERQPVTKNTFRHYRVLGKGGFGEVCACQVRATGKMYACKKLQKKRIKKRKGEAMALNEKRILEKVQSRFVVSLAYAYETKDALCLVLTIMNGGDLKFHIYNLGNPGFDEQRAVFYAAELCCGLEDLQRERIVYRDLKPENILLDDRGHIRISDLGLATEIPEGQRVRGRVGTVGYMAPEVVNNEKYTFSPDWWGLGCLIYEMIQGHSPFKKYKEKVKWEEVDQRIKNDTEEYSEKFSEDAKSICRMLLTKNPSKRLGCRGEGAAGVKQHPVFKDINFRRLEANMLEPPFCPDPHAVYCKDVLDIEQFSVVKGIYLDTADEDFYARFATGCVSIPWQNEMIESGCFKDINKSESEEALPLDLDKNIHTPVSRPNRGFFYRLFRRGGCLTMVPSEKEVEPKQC
RAC-gamma serine/threonine-protein kinase (Homo sapiens), sequence (Q9Y243 whole entry): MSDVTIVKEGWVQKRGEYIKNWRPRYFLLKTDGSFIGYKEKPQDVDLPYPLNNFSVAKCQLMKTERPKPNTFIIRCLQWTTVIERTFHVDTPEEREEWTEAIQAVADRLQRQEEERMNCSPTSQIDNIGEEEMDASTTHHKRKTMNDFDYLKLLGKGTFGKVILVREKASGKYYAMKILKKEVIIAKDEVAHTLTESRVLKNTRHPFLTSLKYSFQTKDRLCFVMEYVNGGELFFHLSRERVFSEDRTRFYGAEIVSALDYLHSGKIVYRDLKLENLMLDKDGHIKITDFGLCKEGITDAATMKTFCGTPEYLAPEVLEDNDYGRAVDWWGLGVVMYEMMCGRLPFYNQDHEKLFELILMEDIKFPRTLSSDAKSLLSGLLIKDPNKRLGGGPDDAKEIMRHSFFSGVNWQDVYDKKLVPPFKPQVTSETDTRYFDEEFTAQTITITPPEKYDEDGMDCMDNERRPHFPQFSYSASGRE
Homeodomain-interacting protein kinase 3 (Homo sapiens), sequence (Q9H422 whole entry, looked up): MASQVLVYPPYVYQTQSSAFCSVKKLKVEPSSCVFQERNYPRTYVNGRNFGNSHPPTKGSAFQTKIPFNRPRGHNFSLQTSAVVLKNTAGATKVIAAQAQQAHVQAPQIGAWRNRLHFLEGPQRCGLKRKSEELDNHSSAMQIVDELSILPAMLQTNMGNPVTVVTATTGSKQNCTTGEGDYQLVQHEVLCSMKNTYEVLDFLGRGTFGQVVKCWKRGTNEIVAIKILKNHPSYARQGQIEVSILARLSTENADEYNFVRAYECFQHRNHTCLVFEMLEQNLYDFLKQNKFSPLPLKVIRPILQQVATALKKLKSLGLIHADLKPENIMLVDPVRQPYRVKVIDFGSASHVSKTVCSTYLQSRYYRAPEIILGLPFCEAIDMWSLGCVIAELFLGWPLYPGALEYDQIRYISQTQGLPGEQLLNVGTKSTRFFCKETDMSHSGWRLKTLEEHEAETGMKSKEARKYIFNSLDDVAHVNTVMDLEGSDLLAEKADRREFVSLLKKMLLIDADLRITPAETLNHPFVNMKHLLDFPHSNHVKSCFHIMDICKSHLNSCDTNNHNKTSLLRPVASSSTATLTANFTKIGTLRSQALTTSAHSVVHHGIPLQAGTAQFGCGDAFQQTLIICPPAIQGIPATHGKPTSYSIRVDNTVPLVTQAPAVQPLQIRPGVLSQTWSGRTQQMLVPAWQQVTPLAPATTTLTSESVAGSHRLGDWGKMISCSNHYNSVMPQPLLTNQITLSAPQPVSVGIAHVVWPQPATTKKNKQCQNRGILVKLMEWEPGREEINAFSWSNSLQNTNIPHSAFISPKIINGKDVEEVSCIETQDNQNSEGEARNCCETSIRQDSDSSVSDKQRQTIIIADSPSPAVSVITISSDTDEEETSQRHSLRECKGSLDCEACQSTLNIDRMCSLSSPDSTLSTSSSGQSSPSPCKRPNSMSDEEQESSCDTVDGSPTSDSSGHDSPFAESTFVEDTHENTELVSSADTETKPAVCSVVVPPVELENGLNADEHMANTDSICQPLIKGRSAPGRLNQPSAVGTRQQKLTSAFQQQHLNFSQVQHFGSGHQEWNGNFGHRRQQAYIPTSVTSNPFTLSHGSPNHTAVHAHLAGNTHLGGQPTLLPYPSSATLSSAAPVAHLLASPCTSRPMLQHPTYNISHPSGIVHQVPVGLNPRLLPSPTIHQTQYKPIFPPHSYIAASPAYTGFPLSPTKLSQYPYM
Tyrosine-protein kinase Srms (Homo sapiens), sequence (Q9H3Y6 whole entry): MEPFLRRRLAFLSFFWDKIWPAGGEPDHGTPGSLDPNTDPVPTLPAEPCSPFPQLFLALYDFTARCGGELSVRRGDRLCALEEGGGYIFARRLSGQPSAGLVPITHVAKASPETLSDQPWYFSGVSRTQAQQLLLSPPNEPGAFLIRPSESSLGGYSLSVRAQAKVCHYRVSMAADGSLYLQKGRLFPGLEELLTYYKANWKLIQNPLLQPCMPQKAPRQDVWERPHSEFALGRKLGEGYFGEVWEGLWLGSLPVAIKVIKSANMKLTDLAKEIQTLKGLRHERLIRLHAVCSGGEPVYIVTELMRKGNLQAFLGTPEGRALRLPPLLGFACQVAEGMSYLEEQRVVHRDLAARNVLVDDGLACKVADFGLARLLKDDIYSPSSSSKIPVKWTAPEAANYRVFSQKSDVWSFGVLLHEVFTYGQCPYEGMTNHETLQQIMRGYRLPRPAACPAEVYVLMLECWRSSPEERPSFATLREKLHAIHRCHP
Mitogen-activated protein kinase 1 (Homo sapiens), sequence (P28482 whole entry): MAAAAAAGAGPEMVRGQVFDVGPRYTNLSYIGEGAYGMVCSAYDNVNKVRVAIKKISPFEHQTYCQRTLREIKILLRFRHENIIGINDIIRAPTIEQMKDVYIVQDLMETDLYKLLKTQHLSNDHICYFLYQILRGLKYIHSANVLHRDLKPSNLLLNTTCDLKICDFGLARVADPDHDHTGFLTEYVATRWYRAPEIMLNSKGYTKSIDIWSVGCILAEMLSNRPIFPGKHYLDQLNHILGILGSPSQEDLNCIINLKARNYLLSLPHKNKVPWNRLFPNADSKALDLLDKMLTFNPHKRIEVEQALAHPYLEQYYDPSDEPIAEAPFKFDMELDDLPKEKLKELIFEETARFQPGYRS
Non-receptor tyrosine-protein kinase TYK2 (Homo sapiens), sequence (P29597 whole entry): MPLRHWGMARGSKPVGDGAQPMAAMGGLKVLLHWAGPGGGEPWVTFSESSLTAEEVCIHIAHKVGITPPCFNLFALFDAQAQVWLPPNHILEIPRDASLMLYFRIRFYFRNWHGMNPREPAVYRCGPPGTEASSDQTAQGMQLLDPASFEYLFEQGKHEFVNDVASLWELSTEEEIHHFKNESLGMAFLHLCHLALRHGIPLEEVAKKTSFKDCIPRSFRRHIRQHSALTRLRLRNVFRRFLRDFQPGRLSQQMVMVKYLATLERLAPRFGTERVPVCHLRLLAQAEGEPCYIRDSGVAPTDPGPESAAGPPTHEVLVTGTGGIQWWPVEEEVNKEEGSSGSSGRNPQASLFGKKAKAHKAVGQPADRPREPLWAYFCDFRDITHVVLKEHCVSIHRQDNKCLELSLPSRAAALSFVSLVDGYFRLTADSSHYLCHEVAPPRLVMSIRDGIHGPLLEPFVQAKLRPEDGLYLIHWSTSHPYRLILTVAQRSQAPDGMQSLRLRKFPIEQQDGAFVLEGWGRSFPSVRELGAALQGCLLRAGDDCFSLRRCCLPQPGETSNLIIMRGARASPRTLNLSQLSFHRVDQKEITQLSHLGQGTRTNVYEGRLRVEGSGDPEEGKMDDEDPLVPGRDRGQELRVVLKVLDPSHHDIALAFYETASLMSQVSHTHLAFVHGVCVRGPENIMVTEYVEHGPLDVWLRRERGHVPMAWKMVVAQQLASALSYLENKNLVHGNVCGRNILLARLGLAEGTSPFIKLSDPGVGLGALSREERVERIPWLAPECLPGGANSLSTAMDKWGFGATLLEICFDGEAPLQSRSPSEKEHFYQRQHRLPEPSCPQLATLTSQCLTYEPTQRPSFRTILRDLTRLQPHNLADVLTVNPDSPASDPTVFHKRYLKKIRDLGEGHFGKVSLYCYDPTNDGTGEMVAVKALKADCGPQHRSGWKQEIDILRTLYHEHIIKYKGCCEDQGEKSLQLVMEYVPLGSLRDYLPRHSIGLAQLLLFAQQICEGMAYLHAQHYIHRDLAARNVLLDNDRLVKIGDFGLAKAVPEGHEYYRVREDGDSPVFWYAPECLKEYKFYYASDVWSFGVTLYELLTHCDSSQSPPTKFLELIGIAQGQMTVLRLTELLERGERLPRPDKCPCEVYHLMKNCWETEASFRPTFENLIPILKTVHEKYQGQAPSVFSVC

## C[C@@]1(C(=O)Nc2ccc(F)nc2)CCCN1c1nc(Nc2cc(C3CC3)n[nH]2)c2cccn2n1
[1]
  inhibition: 2.34%
[2]
  inhibition: 3.41%
[3]
  inhibition: 4.1%
[4]
  inhibition: -3.61%
[5]
  inhibition: -3.77%
[6]
  inhibition: 10.7%
[7]
  inhibition: 1.02%

## C[C@]1(O)C[C@@H](c2nc(-c3ccc4ccc(-c5ccccc5)nc4c3)c3c(N)nccn32)C1
[8]
  inhibition: 5.49%
[9]
  inhibition: 5.45%
[10]
  inhibition: -5.3%
[11]
  inhibition: -3.25%
